From patent US8476283B2, “[6,5]—bicyclic GPR119 G protein-coupled receptor agonists” (Bristol-Myers Squibb Company, priority 2007, dated 2013)

Target: T1, GPR119 (Homo sapiens, UniProt Q8TDV5)
T1 construct: expressed in transfected cells; host or cells: Flp-In-T-REx 293
T1 sequence (Q8TDV5 1-335): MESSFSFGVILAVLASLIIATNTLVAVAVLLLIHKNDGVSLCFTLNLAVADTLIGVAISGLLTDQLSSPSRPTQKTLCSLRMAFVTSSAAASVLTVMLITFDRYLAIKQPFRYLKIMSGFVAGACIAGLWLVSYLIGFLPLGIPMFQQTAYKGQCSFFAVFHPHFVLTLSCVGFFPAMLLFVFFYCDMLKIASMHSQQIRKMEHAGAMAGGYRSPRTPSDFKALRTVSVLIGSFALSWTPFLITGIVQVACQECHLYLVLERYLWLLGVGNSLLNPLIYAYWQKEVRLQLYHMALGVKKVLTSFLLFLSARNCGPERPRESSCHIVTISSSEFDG
Experiment: Human Tet-Inducible cAMP Assay (hEC50, Table 1)
Format: cell-based
Parameters: IA: scale not given here
Settings: for IA: IA as printed beside hEC50 (not defined in the text); for EC50: human GPR119 agonist activity, cAMP
Procedure: The in vitro modulation of GPR119 was determined as follows.
Human Tet-Inducible cAMP Assay
Cell lines using the Flp-In-T-REx 293 tetracycline inducible gene expression system are cultured in culture medium comprising the following components: DMEM#11965, 10% FBS, 2 mM L-glutamine, 200 ug/ml Hygromycin B, and 15 ug/ml blasticidin.
For cAMP assays, cells are plated on 96 well plates (e.g., BD Falcon: REF 353948, black side, clear bottom, TC surface) at a density of about 4.5×10^4 cells per well in growth medium containing 1.0 ug/ml tetracycline (1.0 mg/ml stock). The cells are then incubated for 48 hours at 37° C.
Following the incubation, the growth medium is removed from the wells and the wells rinsed (once) with the assay buffer included in the Hit Hunter cAMP kit (100 μl/well). Following the wash, 20 μl of assay buffer is added to each well, followed by addition of 10 μl of a 3× concentration compound working solution. The solution is then mixed. The final concentration range of compound is from about 10^−5M to about 10^−11M. The reagents are then incubated at 37° C. at 5% CO2 for 1 hour.
The manufacturer's protocol may be followed for cAMP determination. The Hit Hunter cAMP kit protocol is outlined for the HIT-T15 cAMP assays described above.

| SMILES | IA | EC50 [nM] |
| --- | --- | --- |
| Cc1ncccc1Oc1ncnc2c1cnn2C1CCN(C(=O)OC(C)C)CC1.Cl [Example 18, Isopropyl 4-(4-(2-methylpyridin-3-yloxy)-1H-pyrazolo[3,4-d]pyrimidin-1-yl)piperidine-1-carboxylate, hydrochloride salt] | 0.17 | 2720 |
| Cc1ncccc1Oc1ncnc2c1cnn2C1CCN(C(=O)OCc2ccccc2)CC1.Cl [Example 17, Benzyl 4-(4-(2-methylpyridin-3-yloxy)-1H-pyrazolo[3,4-d]pyrimidin-1-yl)piperidine-1-carboxylate, hydrochloride salt] | 0.31 | 1900 |
| CC(C)(C)OC(=O)N1CCC(n2nnc3c(Oc4ccc(S(C)(=O)=O)cc4)nccc32)CC1 [Example 2, tert-Butyl 4-(4-(4-(methylsulfonyl)phenoxy)-1H-[1,2,3]triazolo[4,5-c]pyridin-1-yl)piperidine-1-carboxylate] | 0.29 | 3550 |
| CS(=O)(=O)c1ccc(Nc2ncnc3c2cnn3C2CCN(c3ncccn3)CC2)c(F)c1 [Example 14, N-(2-Fluoro-4-(methylsulfonyl)phenyl)-1-(1-(pyrimidin-2-yl)piperidin-4-yl)-1H-pyrazolo[3,4-d]pyrimidin-4-amine] | 0.76 | 545 |
| CC(C)(C)OC(=O)N1CCC(n2nnc3c(Nc4ccc(C#N)cc4Cl)nccc32)CC1 [Example 5, tert-Butyl 4-(4-(2-chloro-4-cyanophenylamino)-1H-[1,2,3]triazolo[4,5-c]pyridin-1-yl)piperidine-1-carboxylate] | 0.27 | 411 |
| CC(C)(C)OC(=O)N1CCC(n2nnc3c(Nc4ccc(S(C)(=O)=O)cc4F)nccc32)CC1 [Example 1, tert-Butyl 4-(4-(2-fluoro-4-(methylsulfonyl)phenylamino)-1H-[1,2,3]triazolo[4,5-c]pyridin-1-yl)piperidine-1-carboxylate] | 0.55 | 1390 |
| CC(C)OC(=O)N1CCC(n2cnc3c(Nc4ccc(S(C)(=O)=O)cc4F)ncnc32)CC1 [Example 10, iso-Propyl 4-(6-(2-fluoro-4-(methylsulfonyl)phenylamino)-9H-purin-9-yl)piperidine-1-carboxylate] | 0.79 | 407 |
| CC(C)OC(=O)N1CCC(n2ncc3c(Oc4cccnc4C#N)ncnc32)CC1 [Example 19, Isopropyl 4-(4-(2-cyanopyridin-3-yloxy)-1H-pyrazolo[3,4-d]pyrimidin-1-yl)piperidine-1-carboxylate] | 0.13 | 505 |

Now those with a lower EC50, led by results:

| IA | EC50 [nM] | SMILES |
| --- | --- | --- |
| 0.94 | 76.2 | CCc1cnc(N2CCC(n3ncc4c(Nc5ccc(S(C)(=O)=O)cc5F)ncnc43)CC2)nc1 [Example 15, 1-(1-(5-Ethylpyrimidin-2-yl)piperidin-4-yl)-N-(2-fluoro-4-(methylsulfonyl)phenyl)-1H-pyrazolo[3,4-d]pyrimidin-4-amine] |
| 0.47 | 203 | CS(=O)(=O)c1ccc(Nc2ncnc3c2cnn3C2CCN(C(=O)OCc3ccccc3)CC2)c(F)c1 [Example 12, Benzyl 4-(4-(2-fluoro-4-(methylsulfonyl)phenylamino)-1H-pyrazolo[3,4-d]pyrimidin-1-yl)piperidine-1-carboxylate] |
| 0.67 | 218 | CS(=O)(=O)c1ccc(Nc2ncnc3c2nnn3C2CCN(c3ncccn3)CC2)c(F)c1 [Example 8, N-(2-Fluoro-4-(methylsulfonyl)phenyl)-3-(1-(pyrimidin-2-yl)piperidin-4-yl)-3H-[1,2,3]triazolo[4,5-d]pyrimidin-7-amine] |
| 0.69 | 308 | CC(C)OC(=O)N1CCC(n2ncc3c(Nc4ccc(S(C)(=O)=O)cc4F)ncnc32)CC1 [Example 13, Isopropyl 4-(4-(2-fluoro-4-(methylsulfonyl)phenylamino)-1H-pyrazolo[3,4-d]pyrimidin-1-yl)piperidine-1-carboxylate] |
| 1.11 | 81.8 | CCCc1cnc(N2CCC(n3ncc4c(Nc5ccc(S(C)(=O)=O)cc5F)ncnc43)CC2)nc1 [Example 16, N-(2-Fluoro-4-(methylsulfonyl)phenyl)-1-(1-(5-propylpyrimidin-2-yl)piperidin-4-yl)-1H-pyrazolo[3,4-d]pyrimidin-4-amine] |
| 0.56 | 263 | CCc1cnc(N2CCC(n3nnc4c(Nc5ccc(S(C)(=O)=O)cc5F)ncnc43)CC2)nc1 [Example 9, 3-(1-(5-Ethylpyrimidin-2-yl)piperidin-4-yl)-N-(2-fluoro-4-(methylsulfonyl)phenyl)-3H-[1,2,3]triazolo[4,5-d]pyrimidin-7-amine] |
| 0.70 | 287 | CC(C)(C)OC(=O)N1CCC(n2cnc3c(Nc4ccc(C#N)cc4F)ncnc32)CC1 [Example 4, tert-Butyl 4-(6-(4-cyano-2-fluorophenylamino)-9H-purin-9-yl)piperidine-1-carboxylate] |
| 0.81 | 367 | CS(=O)(=O)c1ccc(Nc2ncnc3c2ncn3C2CCN(c3ncccn3)CC2)c(F)c1 [Example 11, N-(2-Fluoro-4-(methylsulfonyl)phenyl)-9-(1-(pyrimidin-2-yl)piperidin-4-yl)-9H-purin-6-amine] |
|  | 19.5 | CC(C)(C)OC(=O)N1CCC(n2nnc3c(Nc4ccc(S(C)(=O)=O)cc4F)ncnc32)CC1 [Example 3, tert-Butyl 4-(7-(2-fluoro-4-(methylsulfonyl)phenylamino)-3H-[1,2,3]triazolo[4,5-d]pyrimidin-3-yl)piperidine-1-carboxylate] |
| 0.68 | 74.9 | CC(C)OC(=O)N1CCC(n2nnc3c(Nc4ccc(S(C)(=O)=O)cc4Cl)ncnc32)CC1 [Example 7, iso-Propyl 4-(7-(2-chloro-4-(methylsulfonyl)phenylamino)-3H-[1,2,3]triazolo[4,5-d]pyrimidin-3-yl)piperidine-1-carboxylate] |
| 0.86 | 140 | CC(C)OC(=O)N1CCC(n2nnc3c(Nc4ccc(S(C)(=O)=O)cc4F)ncnc32)CC1 [Example 6, iso-Propyl 4-(7-(2-fluoro-4-(methylsulfonyl)phenylamino)-3H-[1,2,3]triazolo[4,5-d]pyrimidin-3-yl)piperidine-1-carboxylate] |
